Measured values: article PMC10743905, “Design, Synthesis, and In Vitro and In Vivo Bioactivity Studies of Hydrazide–Hydrazones of 2,4-Dihydroxybenzoic Acid” (International Journal of Molecular Sciences, 2023)
Values after ≈ are worked out from the molar mass of the structure shown. “Also recorded” adds a separate entry of the source.

Key:
[1] = tested on: Candida parapsilosis ATCC 22019; assay: Broth microdilution MIC/MFC; type: cell-based; details: for MFC / MIC: Lodderomyces parapsilosis; for MFC: ATCC22019, read-out: MFC; for MIC: ATCC22019, read-out: MIC
Method in brief: (§1)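 MH broth (bact.) / RPMI 1640+MOPS (fungi); 2-fold dilutions, final 1000–0.488 µg/ml; inoculum 0.5 McFarland in 0.85% NaCl; compounds in DMSO; EUCAST/CLSI.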

[2] = tested on: Candida albicans ATCC 2091; assay: Broth microdilution MIC/MFC; type: cell-based; details: for MIC: ATCC2091, read-out: MIC; for MFC: ATCC2091, read-out: MFC
Method in brief: as §1

[3] = tested on: Candida albicans ATCC 10231; assay: Broth microdilution MIC/MFC; type: cell-based; details: for MFC: ATCC10231, read-out: MFC; for MIC: ATCC10231, read-out: MIC
Method in brief: as §1

[4] = tested on: Candida glabrata ATCC 90030; assay: Broth microdilution MIC/MFC; type: cell-based; details: for MFC / MIC: Nakaseomyces glabratus; for MFC: ATCC90030, read-out: MFC; for MIC: ATCC90030, read-out: MIC
Method in brief: as §1

[5] = tested on: Candida krusei ATCC 14243; assay: Broth microdilution MIC/MFC; type: cell-based; details: for MIC / MFC: Pichia kudriavzevii; for MIC: ATCC14243, read-out: MIC; for MFC: ATCC14243, read-out: MFC
Method in brief: as §1

Danio rerio embryos = assay: Fish Embryo Acute Toxicity (FET) test, OECD No. 236; details: for toxicity for zebrafish embryos and larvae (in words): FET test, based on LC50; for percentage of non-lethal morphological abnormalities: zebrafish larvae 96 hpf; for heart rate vs negative (E3) and solvent (1% DMSO) controls: zebrafish larvae, 96 h
Experimental: Wild-type AB strain zebrafish (Danio rerio) were housed in the Experimental Medicine Centre of Medical University of Lublin (Lublin, Poland), where all the experimental procedures on embryos and larvae were carried out. The animals were kept on a recirculating water supply at 26 ± 1 °C and a 10/14 dark–light cycle, and they were fed with artemia and commercial feed. Danio rerio embryos were obtained from females between 4 and 15 months of age. […] In order to avoid genetic bias in the study, eggs were randomly collected from at least three breeding groups, rinsed, and placed in Petri dishes in the cultured medium, which for Danio rerio is E3 solution. […] In accordance with the legislation of the European Union and Poland, the experiments performed on the earliest life-stages of Danio rerio until 120 h post-fertilization (120 hpf), not defined as protected, are not subject to regulations for animal experimentation.
They address the testing of chemicals using the Fish Embryo Acute Toxicity (FET) test with the species Danio rerio.
Immediately after fertilization, eggs were placed in sterile 24-well plates and exposed for 96 h to at least five concentrations of the test chemical, ranging from 1 to 500 µM and prepared ex tempore on each day of exposure, according to the principle of one egg per well and one concentration per plate. In each plate, 20 wells were filled with the solutions of the tested substance, and 4 wells of the last column were a negative internal control with E3 medium. Each well was filled with 2 mL of solution. Positive control plates were also prepared according to this scheme with 4 mg/L of 3,4-dichloroaniline (Sigma-Aldrich, Poznań, Poland) and a negative control with E3, and a negative solvent control with 1% DMSO, which was used as a solvent for the tested substances. At four time points, microscopic observations were made every 24 h. As indicators of mortality (so-called terminal observations; when at least one of these occurs, embryonic death is declared), the following were recorded: the coagulation of embryos, a lack of somite formation, a lack of detachment of the tail from the yolk sac and a lack of a heartbeat, which was observed from the 48th hour of the study. To confirm the absence of a heartbeat, a microscopic observation was conducted at 80× magnification for one minute. Then, the solutions of the tested chemicals, to maintain their constant composition throughout the test, were replaced with fresh ones, and the plates were incubated for another 24 h in an incubator at 26 ± 1 °C. […] In addition, a quantitative and qualitative summary of the morphological and physiological abnormalities that occurred in the tested Danio rerio embryos and larvae was also made. These included yolk sac edema, pericardial edema, spinal flexure, head deformities, tail deformities, developmental delay defined as a lack of hatching success for 96 hpf larvae, and also bradycardia.
Regression analysis was performed with Excel, and the above-mentioned values were obtained from the linear type of regression analysis. […] The results obtained from the heart rate study of 96 hpf zebrafish larvae were subjected to statistical analysis using one-way analysis of variance (ANOVA) and a post hoc Bonferroni test. The significance level was taken as p < 0.05.

[6] = zebrafish, 500 µM (150.62 mg/L)

CCCc1ccc(/C=N/NC(=O)c2ccc(O)cc2O)cc1 [Compound 13, 2,4-dihydroxy-N-[(4-propylphenyl)methylidene]benzohydrazide]
MFC/MIC [1]: > 1 | MFC [1]: > 1000 mg/L | MIC [1]: 1000 mg/L (≈ 3.35 mM) | MIC [2]: > 1000 mg/L | MFC/MIC [3]: > 1 | MFC [3]: > 1000 mg/L | MIC [3]: 1000 mg/L (≈ 3.35 mM) | MFC/MIC [4]: > 1 | MFC [4]: > 1000 mg/L | MIC [4]: 1000 mg/L (≈ 3.35 mM) | MIC [5]: > 1000 mg/L

O=C(N/N=C/c1cc(I)cc(I)c1O)c1ccc(O)cc1O [Compound 18, 2,4-dihydroxy-N-[(2-hydroxy-3,5-diiodophenyl)methylidene]benzohydrazide]
MFC/MIC [1]: > 2 | MFC [1]: > 1000 mg/L | MIC [1]: 500 mg/L (≈ 0.954 mM) | MFC/MIC [2]: > 2 | MFC [2]: > 1000 mg/L | MIC [2]: 500 mg/L (≈ 0.954 mM) | MFC/MIC [3]: > 1 | MFC [3]: > 1000 mg/L | MIC [3]: 1000 mg/L (≈ 1.91 mM) | MFC/MIC [4]: > 1 | MFC [4]: > 1000 mg/L | MIC [4]: 1000 mg/L (≈ 1.91 mM) | MFC/MIC [5]: > 1 | MFC [5]: > 1000 mg/L | MIC [5]: 1000 mg/L (≈ 1.91 mM)

O=C(N/N=C/c1ccccc1[N+](=O)[O-])c1ccc(O)cc1O [Compound 19, 2,4-dihydroxy-N-[(2-nitrophenyl)methylidene]benzohydrazide]
toxicity for zebrafish embryos and larvae (in words) (Danio rerio embryos): nontoxic; also recorded: negligible toxicity | percentage of non-lethal morphological abnormalities (Danio rerio embryos): ≤ 25% | MFC/MIC [1]: > 4 | MFC [1]: > 1000 mg/L | MIC [1]: 250 mg/L (≈ 0.83 mM) | MFC/MIC [2]: > 2 | MFC [2]: > 1000 mg/L | MIC [2]: 500 mg/L (≈ 1.66 mM) | MFC/MIC [3]: > 4 | MFC [3]: > 1000 mg/L | MIC [3]: 250 mg/L (≈ 0.83 mM) | MFC/MIC [4]: > 2 | MFC [4]: > 1000 mg/L | MIC [4]: 500 mg/L (≈ 1.66 mM) | MFC/MIC [5]: > 2 | MFC [5]: > 1000 mg/L | MIC [5]: 500 mg/L (≈ 1.66 mM)

O=C(N/N=C/c1cccc([N+](=O)[O-])c1)c1ccc(O)cc1O [Compound 20, 2,4-dihydroxy-N-[(3-nitrophenyl)methylidene]benzohydrazide]
toxicity for zebrafish embryos and larvae (in words) (Danio rerio embryos): nontoxic | percentage of non-lethal morphological abnormalities (Danio rerio embryos): ≤ 25% | MFC/MIC [1]: > 1 | MFC [1]: > 1000 mg/L | MIC [1]: 1000 mg/L (≈ 3.32 mM) | MIC [2]: > 1000 mg/L | MFC/MIC [3]: > 1 | MFC [3]: > 1000 mg/L | MIC [3]: 1000 mg/L (≈ 3.32 mM) | MIC [4]: > 1000 mg/L | MIC [5]: > 1000 mg/L

O=C(N/N=C/c1ccc([N+](=O)[O-])cc1)c1ccc(O)cc1O [Compound 21, 2,4-dihydroxy-N-[(4-nitrophenyl)methylidene]benzohydrazide]
toxicity for zebrafish embryos and larvae (in words) (Danio rerio embryos): moderate toxicity | percentage of development delay (Danio rerio embryos; [6]): 10% | percentage of tail malformation (Danio rerio embryos; [6]): 55% | MFC/MIC [1]: > 2 | MFC [1]: > 1000 mg/L | MIC [1]: 500 mg/L (≈ 1.66 mM) | MFC/MIC [2]: > 1 | MFC [2]: > 1000 mg/L | MIC [2]: 1000 mg/L (≈ 3.32 mM) | MFC/MIC [3]: > 2 | MFC [3]: > 1000 mg/L | MIC [3]: 500 mg/L (≈ 1.66 mM) | MIC [4]: > 1000 mg/L | MFC/MIC [5]: > 2 | MFC [5]: > 1000 mg/L | MIC [5]: 500 mg/L (≈ 1.66 mM)

O=C(N/N=C/c1ccccc1Cl)c1ccc(O)cc1O [Compound 22, N-[(2-chlorophenyl)methylidene]-2,4-dihydroxybenzohydrazide]
toxicity for zebrafish embryos and larvae (in words) (Danio rerio embryos): quite toxic | MFC/MIC [1]: > 1 | MFC [1]: > 1000 mg/L | MIC [1]: 1000 mg/L (≈ 3.44 mM) | MFC/MIC [2]: > 1 | MFC [2]: > 1000 mg/L | MIC [2]: 1000 mg/L (≈ 3.44 mM) | MFC/MIC [3]: > 1 | MFC [3]: > 1000 mg/L | MIC [3]: 1000 mg/L (≈ 3.44 mM) | MIC [4]: > 1000 mg/L | MFC/MIC [5]: > 1 | MFC [5]: > 1000 mg/L | MIC [5]: 1000 mg/L (≈ 3.44 mM)

O=C(N/N=C/c1ccccc1Br)c1ccc(O)cc1O [Compound 23, N-[(2-bromophenyl)methylidene]-2,4-dihydroxybenzohydrazide]
toxicity for zebrafish embryos and larvae (in words) (Danio rerio embryos): quite toxic | percentage of yolk sac edema (Danio rerio embryos; zebrafish embryos and larvae, 100 µM (35.52 mg/L)): 80% | MFC/MIC [1]: > 1 | MFC [1]: > 1000 mg/L | MIC [1]: 1000 mg/L (≈ 2.98 mM) | MFC/MIC [2]: > 1 | MFC [2]: > 1000 mg/L | MIC [2]: 1000 mg/L (≈ 2.98 mM) | MFC/MIC [3]: > 1 | MFC [3]: > 1000 mg/L | MIC [3]: 1000 mg/L (≈ 2.98 mM) | MIC [4]: > 1000 mg/L | MIC [5]: > 1000 mg/L

O=C(N/N=C/c1ccccc1F)c1ccc(O)cc1O [Compound 24, N-[(2-fluorophenyl)methylidene]-2,4-dihydroxybenzohydrazide]
toxicity for zebrafish embryos and larvae (in words) (Danio rerio embryos): nontoxic | heart rate vs negative (E3) and solvent (1% DMSO) controls (Danio rerio embryos; 50 µM (13.71 mg/L)): no changes | heart rate vs negative (E3) and solvent (1% DMSO) controls (Danio rerio embryos; 100 µM (27.42 mg/L), p < 0.01): decrease in heartbeat (bradycardia) | heart rate vs negative (E3) and solvent (1% DMSO) controls (Danio rerio embryos; 500 µM (137.12 mg/L), p < 0.001): the reduction was very statistically significant | percentage of pericardial edema (Danio rerio embryos; zebrafish, 100 µM (27.42 mg/L)): 65% | percentage of pericardial edema (Danio rerio embryos; zebrafish, 500 µM (137.12 mg/L)): 85% | MFC/MIC [1]: > 1 | MFC [1]: > 1000 mg/L | MIC [1]: 1000 mg/L (≈ 3.65 mM) | MFC/MIC [2]: > 1 | MFC [2]: > 1000 mg/L | MIC [2]: 1000 mg/L (≈ 3.65 mM) | MFC/MIC [3]: > 1 | MFC [3]: > 1000 mg/L | MIC [3]: 1000 mg/L (≈ 3.65 mM) | MIC [4]: > 1000 mg/L | MFC/MIC [5]: > 1 | MFC [5]: > 1000 mg/L | MIC [5]: 1000 mg/L (≈ 3.65 mM)
